Consider 19 compounds from patent US7662819B2, “Pteridinone derivatives for use as stearoyl CoA desaturase inhibitors” (Gilead Palo Alto, Inc., priority 2007, dated 2010).

The test has as its target T1, stearoyl-CoA desaturase (SCD) (Rattus norvegicus, UniProt P07308).
T1 construct: from tissue; host or cells: liver microsomes of male Sprague Dawley rats, with SCD induced by a carbohydrate-rich diet after fasting/feeding cycles
T1 sequence (P07308 1-358): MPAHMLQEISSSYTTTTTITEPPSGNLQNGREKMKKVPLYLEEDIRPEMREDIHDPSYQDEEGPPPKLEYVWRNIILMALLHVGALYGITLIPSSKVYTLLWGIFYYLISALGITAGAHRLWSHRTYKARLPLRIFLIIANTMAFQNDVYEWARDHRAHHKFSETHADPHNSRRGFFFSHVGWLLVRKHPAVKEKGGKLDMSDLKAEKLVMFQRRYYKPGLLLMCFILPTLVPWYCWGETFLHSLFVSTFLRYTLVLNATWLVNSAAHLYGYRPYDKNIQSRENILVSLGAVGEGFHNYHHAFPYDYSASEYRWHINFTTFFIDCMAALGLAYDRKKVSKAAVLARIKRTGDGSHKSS
The test can be described thus: SCD assay in rat liver microsomes ([3H]stearoyl CoA desaturation, adapted from Talamo and Bloch). In kind it is biochemical. To be noted: rat liver microsomes 0.2 mg/ml assay final, 30 min preincubation, 45 min reaction, room temperature. From the text: The identification of compounds of the invention as SCD inhibitors was readily accomplished using the SCD enzyme and microsomal assay procedure described in Talamo and Bloch (1969) Analytical Biochemistry 29:300-304.
The rat liver microsomes were collected according to the procedure described in Ozols (1990) Methods Enzm, 182:225.
Male Spraque Dawley Rats were placed on regimented fasting protocol for one week to stimulate SCD enzymatic activity. 48-hour periods were alternated between feeding and fasting to induce and down-regulate SCD activity with SCD activity being induced via carbohydrate rich diet prior to liver perfusion and collection.
The rats were anesthetized with Isoflurane inhalation anesthetic, the liver perfused with cold phosphate buffered saline (PBS), weighed, and chilled in cold homogenization buffer (250 mM sucrose, 10 mM Tris, 1 mM EDTA, pH 7.6.
The livers were finely minced and placed in homogenization tube. 40 mL of homogenization buffer was added to the homogenization tube and the liver homogenized and centrifuged in a pre-chilled […] for 10 min at 4° C.
Following centrifugation, the supernatant was collected and the pellet removed and discarded. The supernatant was centrifuge at 10,000 G for 35 minutes. Following centrifugation, the supernatant was collect and the pellet discarded. The supernatant was then centrifuged in a pre-chilled 45-Ti rotor at 130,000 G (41,000 RPM) for 90 minutes at 4° C.
The supernatant was then aspirated off and the collected microsomal pellet washed in 25 mL of Glycerol PBS (1×PBS 7.4, 20% Glycerol) and resuspended in 4-5 volumes of Glycerol PBS.
The protein concentration of the microsomal preparation was determined by BCA assay (Pierce) and the microsomes were aliquoted and stored at −80° C.
Biobeads were ground to a smaller size in a mortar and pestle and resuspended in 3.6% TCA. The beads were then filtered through […] mesh.
SCD was determined in the desaturase assay buffer. This assay buffer contained 0.1 M Tris buffer, pH 7.2, 2 mM NADH, 4.8 mM ATP, 0.5 mM CoA, 4.8 mM MgCl2, and 0.1% BSA.
The Procedure for the SCD Assay (Adapted from Talamo and Bloch (1969) Analytical Biochemistry 29:300-304)
1 μl of each compound of Formula I was added to an assay plate by a low volume (0.5-10 μL) multichannel pipette. A DMSO control was also prepared. The microsomes were quickly thawed and added to assay buffer so that a concentration of 0.4 mg/ml was achieved (0.2 mg/ml assay final). 50 μl of the microsome suspension in assay buffer was then added into each well in the compound assay plate, the plate was covered, and the microsomes preincubated with the compounds for 30 minutes on the orbital shaker, 50-75 rpm, at room temperature.
After preincubation, the reaction was initiated by the addition of 50 μl of substrate solution (20 μM Stearoyl CoA, [3H]Stearoyl CoA, 74 nCi) to the preincubated microsomes/compound suspensions in MilliQ (Millipore) H2O. The reaction mixtures were then incubated for 45 minutes on the orbital shaker at 50-75 rpm at room temperature.
The reaction was terminated by the addition of 10 μl of 21% […] (TCA) to the reaction mixture followed incubation on the orbital shaker for 30 minutes at 50-75 rpm at room temperature followed by centrifugation for 5 minutes at 3700 rpm.
50 μl of a 6% Bio-Bead suspension in H2O was added to the reaction mixture and the assay plate was sealed. The Bio-Bead mixture was incubated on the orbital shaker for 1 hour, 100-150 rpm at room temperature, and then the mixture was centrifuged at 2000 g for 5 minutes to pellet the Bio-Beads.
25 μl of the supernatant was harvested from each well and transferred to a detection plate. 100 μl of OptiPhase SuperMix scinitillation cocktail (containing sufficient NaOH to neutralize the TCA) was added and the solutions mixed by vigorous shaking (300-400 rpm) for 5 minutes at room temperature. […]
A general note: Microsomes from liver hold many membrane-bound enzymes, among them those of drug oxidation.
What is called IC50 is the concentration that inhibits the measured activity by half. On to `CC(=O)NCCn1c(=O)c(-c2cccnc2)nc2cnc(NCc3ccc(Cl)c(Cl)c3)nc21` [Compound 12, N-[2-(2-{[(3,4-dichlorophenyl)methyl]amino}-7-oxo-6-(3-pyridyl)-8-hydropteridin-8-yl)ethyl]acetamide], for which the IC50 amounted to 0.23 µM.

`COc1ccc(-c2nc3cnc(NCc4ccc(Cl)c(Cl)c4)nc3n(CCNC=O)c2=O)cc1` [Compound 41, N-[2-(2-{[(3,4-dichlorophenyl)methyl]amino}-6-(4-methoxyphenyl)-7-oxo-8-hydropteridin-8-yl)ethyl]carboxamide] showed an IC50 of 0.26 µM.

`COc1ccc(-c2nc3cnc(NCc4ccc(Cl)c(Cl)c4)nc3n(CCNC(=O)c3ccsc3)c2=O)cc1` [Compound 23, N-[2-(2-{[(3,4-dichlorophenyl)methyl]amino}-6-(4-methoxyphenyl)-7-oxo(8-hydropteridin-8-yl))ethyl]-3-thienylcarboxamide] gave an IC50 of 0.47 µM.

As for `COc1ccc(-c2nc3cnc(NCc4ccc(Cl)c(Cl)c4)nc3n([C@@H]3CCNC3)c2=O)cc1` [Compound 3, 8-((3R)pyrrolidin-3-yl)-2-{[(3,4-dichlorophenyl)methyl]amino}-6-(4-methoxyphenyl)-8-hydropteridin-7-one], it took 5 µM to reach half-maximal inhibition (IC50). This IC50 lies about 11-fold higher than the previous one.

Turning to `CC(=O)NCCn1c(=O)c(C(F)(F)F)nc2cnc(NCc3ccc(F)cc3)nc21` [Compound 20, N-[2-(2-{[(4-fluorophenyl)methyl]amino}-7-oxo-6-(trifluoromethyl)-8-hydropteridin-8-yl)ethyl]acetamide], it took 22 µM to reach half-maximal inhibition (IC50).

The compound `CC(=O)NCCn1c(=O)cnc2cnc(NCc3cccc(Cl)c3)nc21` [Compound 25, N-[2-(2-{[(3-chlorophenyl)methyl]amino}-7-oxo-8-hydropteridin-8-yl)ethyl]acetamide] returned an IC50 of 10 µM.

For `CC(=O)NCCn1c(=O)c(C(F)(F)F)nc2cnc(NCc3ccc(Cl)c(Cl)c3)nc21` [Compound 13, N-[2-(2-{[(3,4-dichlorophenyl)methyl]amino}-7-oxo-6-(trifluoromethyl)-8-hydropteridin-8-yl)ethyl]acetamide], the IC50 was determined as 2.1 µM.

Regarding `C/C=C/C(=O)NCCn1c(=O)c(-c2ccc(OC)cc2)nc2cnc(NCc3ccc(Cl)c(Cl)c3)nc21` [Compound 40, (2E)—N-[2-(2-{[(3,4-dichlorophenyl)methyl]amino}-6-(4-methoxyphenyl)-7-oxo(8-hydropteridin-8-yl))ethyl]but-2-enamide], the IC50 was found to be 0.47 µM.

As to `CC(=O)NCCn1c(=O)c(-c2cccnc2)nc2cnc(NCc3ccccc3)nc21` [Compound 9, N-(2-{7-oxo-2-[benzylamino]-6-(3-pyridyl)-8-hydropteridin-8-yl}ethyl)acetamide], the IC50 was determined as 2.6 µM.

Take `CC(=O)NCCn1c(=O)c(-c2ccc(Cl)cc2)nc2cnc(NCc3ccc(F)cc3)nc21` [Compound 33, N-[2-(6-(4-chlorophenyl)-2-{[(4-fluorophenyl)methyl]amino}-7-oxo-8-hydropteridin-8-yl)ethyl]acetamide]: 1.8 µM corresponded to half-maximal inhibition (IC50).

In turn, `COc1ccc(-c2nc3cnc(NCc4ccc(Cl)c(Cl)c4)nc3n(CCNC(=O)c3ccncc3)c2=O)cc1` [Compound 39, N-[2-(2-{[(3,4-dichlorophenyl)methyl]amino}-6-(4-methoxyphenyl)-7-oxo(8-hydropteridin-8-yl))ethyl]-4-pyridylcarboxamide] showed an IC50 of 2.8 µM.

In turn, `CCCC(=O)NCCn1c(=O)c(-c2ccc(OC)cc2)nc2cnc(NCc3ccc(Cl)c(Cl)c3)nc21` [Compound 5, N-[2-(2-{[(3,4-dichlorophenyl)methyl]amino}-6-(4-methoxyphenyl)-7-oxo-8-hydropteridin-8-yl)ethyl]butanamide] had an IC50 of 18 µM.

As to `CC(=O)NCCn1c(=O)c(-c2ncccn2)nc2cnc(NCc3ccc(Cl)c(Cl)c3)nc21` [Compound 21, N-[2-(2-{[(3,4-dichlorophenyl)methyl]amino}-7-oxo-6-pyrimidin-2-yl-8-hydropteridin-8-yl)ethyl]acetamide], the midpoint of inhibition, the IC50, lay at 4.34 µM.

With `CC(=O)NCCn1c(=O)c(-c2cccnc2)nc2cnc(NCc3ccc(F)cc3)nc21` [Compound 11, N-[2-(2-{[(4-fluorophenyl)methyl]amino}-7-oxo-6-(3-pyridyl)-8-hydropteridin-8-yl)ethyl]acetamide], the midpoint of inhibition, the IC50, lay at 5.7 µM. This IC50 and that of the compound before are within 1.5-fold of each other.

Compound `COc1ccc(-c2nc3cnc(NCc4ccc(Cl)c(Cl)c4)nc3n(CCNC(=O)c3cccc(F)c3)c2=O)cc1` [Compound 42, N-[2-(2-{[(3,4-dichlorophenyl)methyl]amino}-6-(4-methoxyphenyl)-7-oxo(8-hydropteridin-8-yl))ethyl](3-fluorophenyl)carboxamide] had an IC50 of 2.25 µM.

Turning to `CC(=O)NCCn1c(=O)c(-c2ccc(Cl)cc2)nc2cnc(NCc3ccc(Cl)c(Cl)c3)nc21` [Compound 32, N-[2-(2-{[(3,4-dichlorophenyl)methyl]amino}-6-(4-chlorophenyl)-7-oxo-8-hydropteridin-8-yl)ethyl]acetamide], 1.89 µM corresponded to half-maximal inhibition (IC50).

Turning to `COc1ccc(-c2nc3cnc(NCc4ccc(Cl)c(Cl)c4)nc3n(CCNC(=O)c3ccco3)c2=O)cc1` [Compound 31, N-[2-(2-{[(3,4-dichlorophenyl)methyl]amino}-6-(4-methoxyphenyl)-7-oxo(8-hydropteridin-8-yl))ethyl]-2-furylcarboxamide], the concentration for half-maximal inhibition (IC50) was 2.26 µM.

In the case of `COc1ccc(-c2nc3cnc(NCc4ccc(Cl)c(Cl)c4)nc3n(CCNC(=O)c3ccc(F)cc3)c2=O)cc1` [Compound 29, N-[2-(2-{[(3,4-dichlorophenyl)methyl]amino}-6-(4-methoxyphenyl)-7-oxo(8-hydropteridin-8-yl))ethyl](4-fluorophenyl)carboxamide], the IC50 is 0.43 µM.

In the case of `COc1ccc(-c2nc3cnc(NCc4ccc(F)c(F)c4)nc3n(CCNC(C)=O)c2=O)cc1` [Compound 18, N-[2-(2-{[(3,4-difluorophenyl)methyl]amino}-6-(4-methoxyphenyl)-7-oxo-8-hydropteridin-8-yl)ethyl]acetamide], the IC50 stood at 13 µM.
